Reference: US7417156B2, “Orally active, antimalarial, anticancer, artemisinin-derived trioxane dimers” (Johns Hopkins University, priority 2002, dated 2008)

Legend:
[1] = tested on: T-47D; assay: NCI 60 cell line panel screen (SRB); format: cell-based, human; details: for Log10GI50: Breast Cancer, T-47D; for Log10LC50 / Log10TGI50: T-47D (Breast Cancer); for Log10LC50: LC50: PG=−50; for Log10TGI50: TGI: PG=0
[2] = tested on: KM12; assay: NCI 60 cell line panel screen (SRB); format: cell-based, human; details: for Log10GI50: Colon Cancer, KM12; for Log10LC50 / Log10TGI50: KM12 (Colon Cancer); for Log10LC50: LC50: PG=−50; for Log10TGI50: TGI: PG=0
[3] = tested on: OVCAR-3; assay: NCI 60 cell line panel screen (SRB); format: cell-based, human; details: for Log10LC50 / Log10TGI50: OVCAR-3 (Ovarian Cancer); for Log10LC50: LC50: PG=−50; for Log10TGI50: TGI: PG=0; for Log10GI50: Ovarian Cancer, OVCAR-3
[4] = tested on: HS 578T; assay: NCI 60 cell line panel screen (SRB); format: cell-based, human; details: for Log10GI50: Breast Cancer, HS 578T; for Log10LC50 / Log10TGI50: HS 578T (Breast Cancer); for Log10LC50: LC50: PG=−50; for Log10TGI50: TGI: PG=0
[5] = tested on: NCI-H226; assay: NCI 60 cell line panel screen (SRB); format: cell-based, human
[6] = tested on: 60 cell line panel; format: cell-based; details: for Log10LC50 Delta / Log10LC50 Range / Log10TGI50 Delta / Log10TGI50 Range: 60 cell line panel; for growth inhibition in words: colon cancer KM12, ovarian cancer OVCAR 3, breast cancer MDA-MB-435; for Log10GI50 MG MID: mean over panel; for Log10LC50 MG MID / Log10TGI50 MG MID: mean value over the 60 cell line panel
[7] = tested on: P. berghei NY malaria parasite; assay: Antimalarial efficacies in vivo in mice
Excerpt: Neither overt toxicity nor behavioral modification was observed due to drug administration in any of these mouse experiments.

[8] = tested on: OVCAR-8; assay: NCI 60 cell line panel screen (SRB); format: cell-based, human; details: for Log10LC50 / Log10TGI50: OVCAR-8 (Ovarian Cancer); for Log10LC50: LC50: PG=−50; for Log10TGI50: TGI: PG=0; for Log10GI50: Ovarian Cancer, OVCAR-8
[9] = tested on: malaria parasite; assay: Efficacy Study Blood Schizontocidal Activity; format: in vivo; set-up: ED90: unit not given here

Compound | Log10GI50 [1] | Log10LC50 [1] | Log10GI50 [2] | Log10LC50 [2] | Log10TGI50 [2] | Log10LC50 [3] | Log10GI50 [4] | Log10TGI50 [4] | Log10GI50 Delta [6] | Log10GI50 Range [6] | Log10LC50 Delta [6] | Log10LC50 Range [6] | Log10TGI50 Delta [6] | Log10TGI50 Range [6] | growth inhibition in words [6] | Log10GI50 MG MID [6] | Log10LC50 MG MID [6] | Log10TGI50 MG MID [6] | Log10TGI50 [8] | Log10GI50 [8] | further results
CC1CCC2C(C)C(CC(O)(CC3OC4OC5(C)CCC6C(C)CCC(C3C)C46OO5)CS(=O)(=O)c3ccc(C(=O)O)cc3)OC3OC4(C)CCC1C32OO4 (stereo not drawn) [Compound 10c, bis-trioxane β-hydroxysulfone benzoic acid] | <−8.30 | >−4.30 log10M | <−8.30 | −5.23 log10M | <−8.30 log10M | −5.01 log10M | −4.82 | −4.53 log10M | −0.73 | 3.48 | 1.00 | 1.25 | 2.79 | 4.00 | selectively and strong inhibitory | −7.57 | −4.55 log10M | −5.51 log10M | −4.48 log10M | −5.25 | Log10TGI50 [3]: <−8.30 log10M; Log10GI50 [3]: <−8.30; Log10LC50 [4]: >−4.30 log10M; Log10LC50 ([5]; NCI-H226 (Non-Small Cell Lung Cancer), LC50: PG=−50): −4.82 log10M; Log10TGI50 ([5]; NCI-H226 (Non-Small Cell Lung Cancer), TGI: PG=0): <−8.30 log10M; Log10GI50 ([5]; Non-Small Cell Lung Cancer, NCI-H226): <−8.30; ED50 ([7]; route IV): 2.7 mg/kg × 4; ED90 ([7]; route IV): 10.0 mg/kg × 4; % Parasite Supression at 10 mg/kg ([7]; route IV): 83.4%; ED50 ([7]; route PO): 7.5 mg/kg × 4; ED90 ([7]; route PO): 35.0 mg/kg × 4; % Parasite Supression at 10 mg/kg ([7]; route PO): 46.1%; Log10LC50 [8]: >−4.30 log10M
C[C@@H]1CC[C@H]2[C@@H](C)C(CC(O)(CC3OC4O[C@]5(C)CC[C@H]6[C@H](C)CC[C@@H]([C@H]3C)C46OO5)c3ccc(C(=O)O)cc3)OC3O[C@]4(C)CCC1C32OO4 (stereo partly drawn) [Compound 11b, bis-trioxane tertiary alcohol benzoic acid] | <−8.30 | >−4.30 log10M | <−8.30 | −5.95 log10M | <−8.30 log10M | >−4.30 log10M | −5.15 | >−4.31 log10M | 0.93 | 3.52 | 1.58 | 1.65 | 3.18 | 4.00 | selectively and strong inhibitory | −7.37 | −4.37 log10M | −5.12 log10M | >−4.30 log10M | −5.26 | Log10TGI50 [1]: >−4.30 log10M; Log10TGI50 [3]: −8.07 log10M; Log10GI50 [3]: <−8.30; Log10LC50 [4]: >−4.30 log10M; Log10LC50 [8]: >−4.30 log10M
CC1CCC2C(C)C(CC(COCC(=O)O)CC3OC4OC5(C)CCC6C(C)CCC(C3C)C46OO5)OC3OC4(C)CCC1C32OO4 (stereo not drawn) [Compound 12b, bis-trioxane O-acetic acid] | – | – | – | – | <−8.30 log10M | – | >−4.30 | >−4.30 log10M | 1.57 | 4.00 | 0.70 | 0.72 | 3.49 | 4.00 | selectively and strong inhibitory | −6.73 | −4.32 log10M | −4.81 log10M | >−4.30 log10M | >−4.30 | Log10TGI50 [1]: >−4.30 log10M; ED50 ([9]; Route: IV): 5.2; ED90 ([9]; Route: IV): 10.0; ED50 ([9]; Route: PO): 6.0; ED90 ([9]; Route: PO): 19.0; ED50 ([7]; route IV): 1.0 mg/kg × 4; ED90 ([7]; route IV): 3.5 mg/kg × 4; % Parasite Supression at 10 mg/kg ([7]; route IV): 95.7%; ED50 ([7]; route PO): 6.5 mg/kg × 4; ED90 ([7]; route PO): 17.0 mg/kg × 4; % Parasite Supression at 10 mg/kg ([7]; route PO): 46.5%
